Tests used:
Blood chemistries = type: in vivo, Zucker Fatty Rats; conditions: Experiment 2; for ALP (alkaline phosphatase) / ALT (alanine aminotransferase) / AST (aspartate aminotransferase) / BUN / CO2 / Calcium / Chloride / Cholesterol / Creatinine / Glucose / Potassium / Sodium / Triglycerides: blood at end of study
Source text: Blood for chemical analysis was obtained at the end of the study following removal of food four hours earlier. Blood chemistry values were obtained via dry chemistry procedures using a Johnson and Johnson (Langhorne, Pa.) Vitros® 250 instrument.

Zucker Fatty Rats (ZFR) = assay: Blood pressure and cardiac rate by tail plethysmography; type: in vivo; conditions: for SBP over the last month vs control / SBP after heat stress: Experiment 1; for SBP after heat stress: survivors, 12 days after heat stress; for DBP / SBP / Cardiac rate / SBP at the end of study (75 days) vs Lo Asta group / average SBP vs control from 40 days to end of study: Experiment 2; for DBP / SBP / Cardiac rate: 60 days; for Cardiac rate: in beats/min (unit assumed)
Procedure: For two experiments, a total of 96 Zucker Fatty Rats (ZFR) (Charles River, Wilmington, Mass.) were used: 48 in each experiment were divided into four groups of 12 rats. Initial body weights ranged between 434 and 624 g in the first experiment and between 388 and 520 g in the second. All rats consumed a regular rat diet in crushed form (Purina Rat Chow, Ralston Purina, St. Louis, Mo.). Sucrose was added to the pulverized regular rat chow (30%, w/w). The four groups comprised a control eating the described diet and three test groups eating the same diet but with the addition of captopril or astaxanthin (two different doses). […] The amount of astaxanthin added was based on 2% (w/w) content of astaxanthin to powder. The first study continued for 57 days while the second continued for 75 days. SBP was measured by tail plethysmography using two different instruments. As in many previous studies, an instrument from Narco Biosciences (Houston, Tex.) was used. This allowed for rapid measurement SBP with a beeper sound system. The second reading was performed on an instrument obtained from Kent Scientific Corporation (Torrington, Conn.). The latter is a computerized, non-invasive tail cuff acquisition system that utilizes a specially-designed differential pressure transducer to non-invasively measure the blood volume in the tail. This instrument not only records SBP, but also provides measurements of mean blood pressure (MBP), diastolic blood pressure (DBP), and cardiac rate. The two instruments were used interchangeably. Previous experience has shown that the SBP readings were virtually the same by either instrument. Rats were allowed free access to their diet and water until SBP readings were obtained between 13.00 h and 17.00 h after a slight warming. Multiple readings on individual rats were taken. To be accepted, SBP measurements on a given rat had to be stable (consistently within 5 mm Hg).

Organ weights = type: in vivo, Zucker Fatty Rats; conditions: Experiment 2, after sacrifice, in g (unit assumed)
Procedure: Organ weights were measured immediately after sacrifice of the rats.

MCP-1 = assay: Cytokine assay (ELISA), MCP-1; type: in vivo, Zucker Fatty Rats; conditions: Experiment 2
Procedure: (§1) Various cytokines were measured by ELISA methodology using kits from the following sources: rat MCP-1—Assay Designs Inc., Ann Arbor, Mich.; rat adiponectin—ALPCO Diagnostics, Salem, N.H.; TNF-a, ALPCO Diagnostics, Salem, N.H.; RAT IL-1B—Assay Designs Inc, Ann Arbor, Mich.; RAT IL-6—ALPCO Diagnostics, Salem, N.H.

adiponectin = assay: Cytokine assay (ELISA), adiponectin; type: in vivo, Zucker Fatty Rats; conditions: Experiment 2
Procedure: as §1

[1] = Hi Asta, astaxanthin 25 mg/kg in feed
[2] = Lo Asta, astaxanthin 5 mg/kg in feed

With `CC1=C(/C=C/C(C)=C/C=C/C(C)=C/C=C/C=C(C)/C=C/C=C(C)/C=C/C2=C(C)C(=O)[C@@H](O)CC2(C)C)C(C)(C)C[C@H](O)C1=O` [Asta, astaxanthin] the “renal damage (elevations in BUN and creatinine concentrations)” value (Blood chemistries; [1]) was “none of the ZFR in the Hi Asta group showed any evidence of elevations”, the “renal damage (increased circulating urea, creatinine and potassium)” value (Blood chemistries; [2]) was “evidence of renal damage occurred in three ZFR” and the ALP (alkaline phosphatase) (Blood chemistries; [1]) was 331 ± 27.3 U/L. The “ALT (alanine aminotransferase)” value (Blood chemistries; [1]) was 86.2 ± 13.7 units, the “AST (aspartate aminotransferase)” value (Blood chemistries; [1]) was 106.1 ± 21.0 units and the BUN (Blood chemistries; [1]) was 15.0 ± 0.5 mg/dL. It also gave a CO2 (Blood chemistries; [1]) of 23.5 ± 0.5 mM, a Calcium (Blood chemistries; [1]) of 11.4 ± 0.1 mg/dL and a Chloride (Blood chemistries; [1]) of 98.9 ± 0.8 mM. It also gave a Cholesterol (Blood chemistries; [1]) of 314.0 ± 13.6 mg/dL, a Creatinine (Blood chemistries; [1]) of 0.5 ± 0.01 mg/dL and a Glucose (Blood chemistries; [1]) of 327.0 ± 14.2 mg/dL. The Potassium (Blood chemistries; [1]) was 6 ± 0.13 mM, the Sodium (Blood chemistries; [1]) was 142 ± 0.8 mM and the Triglycerides (Blood chemistries; [1]) was 1172.0 ± 51.2 mg/dL. For the same compound, the ALP (alkaline phosphatase) (Blood chemistries; [2]) was 364 ± 33.4 U/L, the “ALT (alanine aminotransferase)” value (Blood chemistries; [2]) was 70.9 ± 12.4 units and the “AST (aspartate aminotransferase)” value (Blood chemistries; [2]) was 105.8 ± 20.9 units. For the same compound, the BUN (Blood chemistries; [2]) was 25.3 ± 5.4 mg/dL, the CO2 (Blood chemistries; [2]) was 22.5 ± 1 mM and the Calcium (Blood chemistries; [2]) was 11.3 ± 0.2 mg/dL. It also gave a Chloride (Blood chemistries; [2]) of 98.4 ± 0.7 mM, a Cholesterol (Blood chemistries; [2]) of 308.0 ± 27.8 mg/dL and a Creatinine (Blood chemistries; [2]) of 0.6 ± 0.90 mg/dL. For the same compound, the Glucose (Blood chemistries; [2]) was 317.0 ± 30.6 mg/dL, the Potassium (Blood chemistries; [2]) was 6.5 ± 0.04 mM and the Sodium (Blood chemistries; [2]) was 141 ± 0.7 mM. The Triglycerides (Blood chemistries; [2]) was 1167.0 ± 71.6 mg/dL, the “SBP over the last month vs control” value (Zucker Fatty Rats (ZFR); [1]) was “significantly lower SBP” and the “SBP over the last month vs control” value (Zucker Fatty Rats (ZFR); [2]) was “tendency for the SBP to be lower”. For the same compound, the “SBP after heat stress” value (Zucker Fatty Rats (ZFR); [1]) was 133.5 ± 1.5 mm Hg, the “SBP after heat stress” value (Zucker Fatty Rats (ZFR); [2]) was 140.0 ± 2.0 mm Hg and the DBP (Zucker Fatty Rats (ZFR); [1]) was 102.0 ± 2.0 mm Hg. It also gave an SBP (Zucker Fatty Rats (ZFR); [1]) of 132.0 ± 1.8 mm Hg, a Cardiac rate (Zucker Fatty Rats (ZFR); [1]) of 401.0 ± 10.6 and a DBP (Zucker Fatty Rats (ZFR); [2]) of 108.0 ± 2.1 mm Hg. For the same compound, the SBP (Zucker Fatty Rats (ZFR); [2]) was 134.0 ± 1.6 mm Hg, the Cardiac rate (Zucker Fatty Rats (ZFR); [2]) was 387.0 ± 8.6 and the “SBP at the end of study (75 days) vs Lo Asta group” value (Zucker Fatty Rats (ZFR); [1]) was “significantly lower than in the Lo Asta group”. The “average SBP vs control from 40 days to end of study” value (shortened to “average SBP vs control from 40 days”) (Zucker Fatty Rats (ZFR); [1]) was “significantly lower than control”, the “average SBP vs control from 40 days” value (Zucker Fatty Rats (ZFR); [2]) was “significantly lower than control” and the “Organ weight, Epidydimal fat pad” value (Organ weights; [1]) was 21.7 ± 12. The “Organ weight, Kidney (left)” value (Organ weights; [1]) was 2.4 ± 0.08, the “Organ weight, Kidney (right)” value (Organ weights; [1]) was 2.5 ± 0.10 and the “Organ weight, Liver” value (Organ weights; [1]) was 43.3 ± 2.3. The “Organ weight, Epidydimal fat pad” value (Organ weights; [2]) was 19.3 ± 0.9, the “Organ weight, Kidney (left)” value (Organ weights; [2]) was 2.5 ± 0.16 and the “Organ weight, Kidney (right)” value (Organ weights; [2]) was 2.5 ± 0.34. For the same compound, the “Organ weight, Liver” value (Organ weights; [2]) was 40.4 ± 2.4, the MCP-1 (MCP-1; [1]) was 96.0 ± 4.1 and the MCP-1 (MCP-1; [2]) was 110.0 ± 5.2. For the same compound, the Adiponectin (adiponectin; [1]) was 4.03 ± 0.40 and the Adiponectin (adiponectin; [2]) was 4.11 ± 0.27.
For `C[C@H](CS)C(=O)N1CCC[C@H]1C(=O)O` [Captopril, reference compound], the ALP (alkaline phosphatase) (Blood chemistries; captopril 30 mg/kg in feed) was 333 ± 22.1 U/L, the “ALT (alanine aminotransferase)” value (Blood chemistries; captopril 30 mg/kg in feed) was 89.4 ± 13.9 units and the “AST (aspartate aminotransferase)” value (Blood chemistries; captopril 30 mg/kg in feed) was 93.0 ± 12.8 units. For the same compound, the BUN (Blood chemistries; captopril 30 mg/kg in feed) was 14.0 ± 0.5 mg/dL, the CO2 (Blood chemistries; captopril 30 mg/kg in feed) was 24.1 ± 0.9 mM and the Calcium (Blood chemistries; captopril 30 mg/kg in feed) was 11.3 ± 0.6 mg/dL. It also gave a Chloride (Blood chemistries; captopril 30 mg/kg in feed) of 98.6 ± 1 mM, a Cholesterol (Blood chemistries; captopril 30 mg/kg in feed) of 281.0 ± 15.6 mg/dL and a Creatinine (Blood chemistries; captopril 30 mg/kg in feed) of 0.4 ± 0.02 mg/dL. It also gave a Glucose (Blood chemistries; captopril 30 mg/kg in feed) of 327.0 ± 23.0 mg/dL, a Potassium (Blood chemistries; captopril 30 mg/kg in feed) of 6 ± 0.04 mM and a Sodium (Blood chemistries; captopril 30 mg/kg in feed) of 140 ± 0.5 mM. For the same compound, the Triglycerides (Blood chemistries; captopril 30 mg/kg in feed) was 1029.0 ± 73.6 mg/dL, the “SBP over the last month vs control” value (Zucker Fatty Rats (ZFR); captopril 30 mg/kg in feed) was “significantly lower SBP” and the “SBP after heat stress” value (Zucker Fatty Rats (ZFR); captopril 30 mg/kg in feed) was 133.8 ± 2.4 mm Hg. For the same compound, the DBP (Zucker Fatty Rats (ZFR); captopril 30 mg/kg in feed) was 103.0 ± 1.8 mm Hg, the SBP (Zucker Fatty Rats (ZFR); captopril 30 mg/kg in feed) was 129.0 ± 1.5 mm Hg and the Cardiac rate (Zucker Fatty Rats (ZFR); captopril 30 mg/kg in feed) was 393.0 ± 9.3. For the same compound, the “SBP at the end of study (75 days) vs Lo Asta group” value (Zucker Fatty Rats (ZFR); captopril 30 mg/kg in feed) was “significantly lower than in the Lo Asta group”, the “average SBP vs control from 40 days” value (Zucker Fatty Rats (ZFR); captopril 30 mg/kg in feed) was “significantly lower than control” and the “Organ weight, Epidydimal fat pad” value (Organ weights; captopril 30 mg/kg in feed) was 19.1 ± 1.2. The “Organ weight, Kidney (left)” value (Organ weights; captopril 30 mg/kg in feed) was 2.3 ± 0.09, the “Organ weight, Kidney (right)” value (Organ weights; captopril 30 mg/kg in feed) was 2.3 ± 0.09 and the “Organ weight, Liver” value (Organ weights; captopril 30 mg/kg in feed) was 43.1 ± 2.0. For the same compound, the MCP-1 (MCP-1; captopril 30 mg/kg in feed) was 81.0 ± 4.1 and the Adiponectin (adiponectin; captopril 30 mg/kg in feed) was 4.27 ± 0.39.

Source: US8877819B2, “Methods for treating heat stress and related compositions” (Georgetown University, priority 2008, dated 2014)
